Values of other authors as cited in patent publication US20100280059A1, “COMPOSITIONS COMPRISING AN ANTIHISTAMINE, A[…] DE[…] EXTENDED RELEASE FORMULATIONS” (Atley Pharmaceuticals, Inc., priority 2009, published 2010).
Read-outs that look alike come from different tables or passages of the source.

Legend:
[1] = not given; remark: listed apart in the source
[2] = not given; remark: listed apart in the source
[3] = single IR oral dose of 10 mg HC, 5 male human subjects

CN(C)CCC(c1ccc(Cl)cc1)c1ccccn1 (stereo not shown) [CPM, chlorpheniramine]
excreted in the feces (in vivo): Less than 1% | renal elimination as share of total excretion (in vivo): approximately 50% | excreted in the urine (metabolism to monodesmethyl and didesmethyl compounds): up to 26%

COc1ccc2c3c1O[C@H]1C(=O)CC[C@H]4[C@@H](C2)N(C)CC[C@]314 [HC, hydrocodone]
share of total excretion occurring in the first 24 hours ([1]; after a single oral dose): About 70% | elimination half-life of the parent-compound ([1]; in vivo): 3.8 to 4.5 h | Tmax [1, 3]: approximately 1.3±0.3 hours | mean peak serum concentration [1, 3]: 23.6 ± 5.2 ng/mL

CN[C@@H](C)[C@@H](O)c1ccccc1 [PSE, pseudoephedrine]
half-life ([2]; affected by urinary pH): 9 to 16 h | Tmax ([2]; following administration): 1.5 to 2.4 h | dose excreted unchanged in the urine ([2]; within 24 hours of dosing): up to 90%
